Reference: patent publication US9642874B2, “Compositions of selenoorganic compounds and methods of use thereof” (Alltech, Inc., priority 2014, dated 2017)

Test system: PDK1
Experiment: Western blot of pPdk1 in primary mouse hepatocytes
Format: cell-based
Details: 100 nM insulin 6 hours, or Compounds CDE both doses 24 hours + 6 hours
Protocol: The overnight-acclimated hepatocytes were washed twice with PBS (to remove any residual FBS and other additives in the TRL hepatocyte maintenance medium, pretreated with control (water) or selenium Compounds CDE (150 or 300 ppb of each selenium compound) in DMEM/F12 media supplemented with 10% fetal bovine serum (FBS) for 24 hr. These cells were then washed twice with PBS and incubated with the same dose of selenium Compounds CDE (150 or 300 ppb) in the presence or absence of insulin (10 or 100 nM, Sigma), 0.1 mM 8-CPT (Sigma) or 0.5 μM Dex (Sigma) in serum-free and glucose-free DMEM media (Invitrogen) supplemented with 20 mM lactose (Sigma) and 2 mM pyruvate (Sigma) and 15 mM HEPES (Sigma) for another 6 hours. […]
After the above described treatments, primary mouse hepatocytes were rinsed with ice-cold PBS and lysed in the ice-cold RIPA buffer containing complete proteinase and phosphatase inhibitors (Thermo-Fisher Scientific, Waltham, Mass.) on ice for 30 min Cell lysates were collected using a cell scraper and transfer pipette and then centrifuged at 12000×g for 30 min at 4° C. to remove the DNA pellet and obtain the protein extract. Protein levels in the supernatant of these cell lysates were determined using the Pierce Micro-BCA protein assay kit (Thermo Scientific-Piece Biotechnology, Rockford, Ill.) according to the manufacturer's protocol. […]

## insulin: insulin (10 or 100 nM, Sigma) used as comparator and cotreatment
  pPdk1 protein level (in words): significant increase
